This note sets out measurements from the NIST ThermoML archive (doi:10.1021/acs.jced.9b00308).

± gives the expanded uncertainty stated by the source.

For data set [1] the following is noted: Crystal 1; DSC.
Data set [2] can be described thus: Molar enthalpy of transition or fusion. The note with it: Crystal 1; DSC.

Turning to `O=C1Cc2ccccc2N1` [indolin-2-one], the Triple point temperature in data set [1] came out at 393.93 ± 4.1 K. Also, the “Molar enthalpy of transition or fusion” value in data set [2] was 3.94 ± 0.717 kcal/mol.
